# Experimental data as given in publication PMC4151019 (Clinical Pharmacology and Therapeutics, 2014).
# “And” between values parts separate entries of the source, which are not always exact repeats. Equal values may be shown once. Read-outs that look alike come from different tables or passages of the source.
# Assays:
# [1] = Comparison of probe Cmax and AUC in DBS and plasma; assay type: in vivo, human; details: for blood plasma ratio: human, capillary whole blood (DBS) versus venous plasma, oral
# [2] = assay type: in vivo, human
# CYP2D6 = details: read-out: inhibition constant (Ki); cited from earlier work
# [3] = after a single 75-mg bupropion dose; cited from earlier work
# CYP2B6 = CYP2B6 phenotyping with bupropion; details: rifampicin-mediated induction; matrix not stated
# [4] = Side effects reported by volunteers; details: 10 healthy volunteers
# CYP3A = CYP3A phenotyping with midazolam; details: voriconazole 400 mg 2 h before cocktail
# CYP1A2 = target: T1, CYP1A2 (Homo sapiens, UniProt P05177); assay: CYP1A2 phenotyping with caffeine; details: par/caf AUClast ratio in DBS
# T1 sequence (P05177 1-516): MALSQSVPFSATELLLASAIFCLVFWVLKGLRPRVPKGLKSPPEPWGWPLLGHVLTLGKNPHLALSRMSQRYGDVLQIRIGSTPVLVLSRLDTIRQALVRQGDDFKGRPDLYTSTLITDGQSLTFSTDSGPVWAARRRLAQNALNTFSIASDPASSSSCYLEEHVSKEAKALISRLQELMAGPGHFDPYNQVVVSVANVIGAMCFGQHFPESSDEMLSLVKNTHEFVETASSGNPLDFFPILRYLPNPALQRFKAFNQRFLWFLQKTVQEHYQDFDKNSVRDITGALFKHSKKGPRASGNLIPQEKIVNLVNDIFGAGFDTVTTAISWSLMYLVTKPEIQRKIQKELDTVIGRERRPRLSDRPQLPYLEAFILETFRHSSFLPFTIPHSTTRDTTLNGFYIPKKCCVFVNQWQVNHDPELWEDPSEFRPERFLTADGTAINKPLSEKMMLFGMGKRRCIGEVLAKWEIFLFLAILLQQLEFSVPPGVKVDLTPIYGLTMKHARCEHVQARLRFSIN
# CYP2C19 = CYP2C19 (Homo sapiens, UniProt P33261); details: previous studies; cited from earlier work
# CYP2C19, sequence (P33261 whole entry): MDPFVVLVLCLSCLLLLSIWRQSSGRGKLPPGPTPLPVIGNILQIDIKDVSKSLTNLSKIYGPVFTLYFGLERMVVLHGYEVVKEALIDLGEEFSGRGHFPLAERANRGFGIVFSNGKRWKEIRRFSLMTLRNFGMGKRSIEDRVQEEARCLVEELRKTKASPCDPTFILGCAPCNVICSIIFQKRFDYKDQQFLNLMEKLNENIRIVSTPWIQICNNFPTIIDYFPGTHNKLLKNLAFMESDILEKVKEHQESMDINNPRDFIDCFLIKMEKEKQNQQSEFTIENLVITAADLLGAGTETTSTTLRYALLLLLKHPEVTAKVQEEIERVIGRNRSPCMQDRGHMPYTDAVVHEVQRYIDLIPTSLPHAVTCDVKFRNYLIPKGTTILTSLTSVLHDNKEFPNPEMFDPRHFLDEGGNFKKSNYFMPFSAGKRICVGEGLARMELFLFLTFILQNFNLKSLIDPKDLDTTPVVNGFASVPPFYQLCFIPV
# [5] = after a 75-mg single dose, from free plasma fraction and liver/plasma ratio
# [6] = after a single 25-mg dose, approximately 3 times less than 75 mg
smiles,measurement,setting,value
"COc1ccc2[nH]c([S+]([O-])Cc3ncc(C)c(OC)c3C)nc2c1 (centres unmarked) [Omeprazole, omeprazole]",blood plasma ratio,[1],~0.6
"Cc1ncc2n1-c1ccc(Cl)cc1C(c1ccccc1F)=NC2 [Midazolam, midazolam]",blood plasma ratio,[1],~0.6
"CC(NC(C)(C)CO)C(=O)c1cccc(Cl)c1 (centres unmarked) [OH-bup, 4′-hydroxybupropion]",maximal estimated liver concentrations,[2]; [5],1.13 µmol/L
same,maximal estimated liver concentrations,[2]; [6],0.38 µmol/L
same,Ki,CYP2D6,13.3 µM
same,maximal plasma concentrations,[3],0.52 µmol/L
CC(NC(C)(C)C)C(O)c1cccc(Cl)c1 (centres unmarked) [erythrohydrobupropion],maximal estimated liver concentrations,[2]; [5],0.16 µmol/L
same,maximal estimated liver concentrations,[2]; [6],0.05 µmol/L
same,Ki,CYP2D6,1.7 µM
same,maximal plasma concentrations,[3],0.03 µmol/L
"CC(NC(C)(C)C)C(=O)c1cccc(Cl)c1 (centres unmarked) [Bupropion, bupropion]",maximal estimated liver concentrations,[2]; [5],0.73 µmol/L
same,maximal estimated liver concentrations,[2]; [6],0.24 µmol/L
same,Ki,CYP2D6,21 µM
same,decrease in bupropion AUC,CYP2B6,approximately threefold
C[C@@H](c1ncncc1F)[C@](O)(Cn1cncn1)c1ccc(F)cc1F [voriconazole],reported side effects,[4],four volunteers reported short-lasting troubled vision
same,effect on CYP3A activity,CYP3A,significantly inhibited
COCCCC/C(=N\OCCN)c1ccc(C(F)(F)F)cc1 [fluvoxamine],reported side effects,[4],four volunteers reported short-lasting troubled vision
same,effect on CYP1A2 activity,CYP1A2,potently inhibited
"COc1ccc2c(c1)[C@]13CCCC[C@@H]1[C@H](C2)N(C)CC3 [Dextromethorphan, dextromethorphan]","Cmax and AUC in DBS vs plasma (mean ratio, blood to plasma ratio)",[1]; capillary DBS vs venous plasma,higher in DBS
"CC(C(=O)O)c1ccc(-c2ccccc2)c(F)c1 (centres unmarked) [Flurbiprofen, flurbiprofen]",blood plasma ratio,[1],~0.6
C[C@H](NC(C)(C)C)[C@@H](O)c1cccc(Cl)c1 [threohydrobupropion],maximal estimated liver concentrations,[2]; [5],1.31 µmol/L
same,maximal estimated liver concentrations,[2]; [6],0.44 µmol/L
same,Ki,CYP2D6,5.4 µM
same,maximal plasma concentrations,[3],0.24 µmol/L
CO[C@H]1/C=C/O[C@@]2(C)Oc3c(C)c(O)c4c(O)c(c(/C=N/N5CCN(C)CC5)c(O)c4c3C2=O)NC(=O)/C(C)=C\C=C\[C@H](C)[C@H](O)[C@@H](C)[C@@H](O)[C@@H](C)[C@H](OC(C)=O)[C@@H]1C [rifampicin],extent of CYP2C19 induction,CYP2C19,4.2 fold and 2.6 fold
same,effect on CYP1A2 activity,CYP1A2,"slightly, but not significantly, increased"
